Reference: PMC10287695, “Non-covalent inhibitors of thioredoxin glutathione reductase with schistosomicidal activity in vivo” (Nature Communications, 2023)
pIC50: −log10 of the molar value.

Each molecule was assayed against T1, Human TrxR1 (Homo sapiens, UniProt Q16881) (assay: Human TrxR1 enzyme inhibition (DTNB reduction)). Conditions: 66.7 µM, 6 h preincubation; read-out: Human TrxR1 IC50 (µM) or inhibition (%) at 66.7 µM: inhibition.
T1 construct: made in house
T1 sequence (Q16881 1-499 isoform Q16881-5): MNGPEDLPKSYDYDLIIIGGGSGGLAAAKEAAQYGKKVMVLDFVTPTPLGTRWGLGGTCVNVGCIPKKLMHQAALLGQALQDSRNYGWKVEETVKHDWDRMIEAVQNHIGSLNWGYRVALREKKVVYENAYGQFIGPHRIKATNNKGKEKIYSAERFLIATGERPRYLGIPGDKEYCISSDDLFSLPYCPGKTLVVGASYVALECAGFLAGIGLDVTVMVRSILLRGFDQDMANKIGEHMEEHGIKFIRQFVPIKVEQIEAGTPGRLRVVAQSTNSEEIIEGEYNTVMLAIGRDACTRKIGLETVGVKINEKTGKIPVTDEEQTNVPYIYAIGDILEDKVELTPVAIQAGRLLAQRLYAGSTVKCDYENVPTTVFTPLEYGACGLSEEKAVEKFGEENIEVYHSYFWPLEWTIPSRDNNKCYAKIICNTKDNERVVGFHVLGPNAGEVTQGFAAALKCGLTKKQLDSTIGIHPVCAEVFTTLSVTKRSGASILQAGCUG
Assay type: biochemical
Procedure: Recombinant TGR, human TrxR1, B. malayi (Bm)TrxR and human GR proteins were expressed and purified as described[20],[69],[79]. The codon optimized sequence for P. falciparum (PfTrxR, https://www.ncbi.nlm.nih.gov/protein/CAA60574.1/) with an N-terminal 6-His tag was synthesized and inserted into pET15b (GenScript) and expressed in BL21 (DE3) cells and purified as described for human GR[20]. TGR and TrxR enzyme inhibition assays were performed in triplicate at 25 °C as described[20] in 0.1 M potassium phosphate (pH 7.4), 10 mM EDTA, 100 µM NADPH and 0.01% Tween-20. […] The reaction was started with addition of an equal volume of DTNB (6 mM) and NADPH (100 µM) and the increase in A412 during the first 3 min was recorded. […] The reaction was preincubated for 15 min. Activity was initiated with the addition of 1 mM GSSG and 100 μM NADPH and initial rates of NADPH oxidation were monitored at 340 nm. The reactions were done in triplicate. The IC50 was calculated in GraphPad Prism.

| Structure (SMILES) | inhibition at 66.7 µM [%] |
| --- | --- |
| Cc1oc(-c2ccc3ccccc3c2)nc1CNC1CCCCCC1 [Compound 5] | 28.5 |

Same assay, conditions: 15 min preincubation (enzyme + 100 µM NADPH + compound); read-out: Human TrxR1 IC50

| Structure (SMILES) | pIC50 |
| --- | --- |
| Cc1oc(-c2ccc3ccccc3c2)nc1CNC1CCCCCC1 [Compound 5] | < 4.18 |

These molecules were tested against T2, Human GR (Homo sapiens, UniProt P00390) (assay: Human GR enzyme inhibition (GSSG reduction, NADPH oxidation)). Conditions: 66.7 µM.
T2 construct: made in house
T2 sequence (P00390 44-522): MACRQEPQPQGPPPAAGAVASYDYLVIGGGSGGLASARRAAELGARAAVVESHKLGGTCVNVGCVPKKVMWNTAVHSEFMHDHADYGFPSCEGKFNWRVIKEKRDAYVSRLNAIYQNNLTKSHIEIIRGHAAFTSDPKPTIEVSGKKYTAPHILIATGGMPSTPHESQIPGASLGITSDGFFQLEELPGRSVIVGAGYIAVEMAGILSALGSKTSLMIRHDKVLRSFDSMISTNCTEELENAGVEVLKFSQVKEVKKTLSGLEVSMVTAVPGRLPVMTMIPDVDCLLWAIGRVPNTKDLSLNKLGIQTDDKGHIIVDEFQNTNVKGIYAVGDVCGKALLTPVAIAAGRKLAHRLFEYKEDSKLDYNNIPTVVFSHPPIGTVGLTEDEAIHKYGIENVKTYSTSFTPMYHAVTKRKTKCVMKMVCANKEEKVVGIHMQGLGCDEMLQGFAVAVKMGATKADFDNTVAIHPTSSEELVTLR
Assay type: biochemical

| Structure (SMILES) | Human GR (inhibition at 66.7 µM) |
| --- | --- |
| Cc1oc(-c2ccc3ccccc3c2)nc1CNC1CCCCCC1 [Compound 5] | n.i. |

The molecules below were run on S. mansoni adult worms (assay: GSH/GSSG ratio in ex vivo adult worms). Conditions: adult worms ex vivo, 1 hr.
Assay type: cell-based
Procedure: We assessed GSH/GSSG levels experimentally by treating S. mansoni adult worms with 50 µM of compounds, or respective controls 5 µM Auranofin, 50 µM PZQ or 50 µM MZM and 0.01% DMSO for 3 h. Worm homogenate was prepared by washing three times with PBS to remove residual compounds and ten volumes of ice cold 5% sulfosalicylic acid was added. Worms were manually homogenized on ice using VWR Pellet Mixer Adaptor. The worm suspension was centrifuged at 14000 × g, 4 °C for 10 min and the acid supernatants transferred. An equal volume of ice-cold neutralization buffer (500 mM HEPES, pH 8.0) was added to the acid supernatants.
GSH/GSSG assay was performed by diluting the acid supernatant (5-fold) with ice-cold dilution buffer (250 mM HEPES, pH 7.5). Using white opaque luminescence plate on ice, 25 µl of the diluted worm acid supernatant was added each well in triplicates. Total glutathione lysis reagent and GSSG lysis reagent, which contains alkylating agent N-ethylmaleimide (25 mM) were prepared following manufactures protocol and added to respective wells along with blank for background. Total glutathione lysis reagent or oxidized glutathione lysis reagent (25 µl) was added to respective wells containing worm acid supernatants and the plate was shaken for 5 min. Luciferin generation reagent (LGR) (50 µl) was added to all wells, briefly shaken and incubated at room temperature for 30 min. Luciferin detection reagent (LDR) (100 µl) was added to all wells, briefly shaken and incubated for 15 min at room temperature and the luminescence measured using microplate imager (BioTek Cytation3). GSH/GSSH ratio for DMSO control and compounds were calculated using (Net DMSO total glutathione RFU) – (Net DMSO GSSG RFU)/ (Net DMSO GSSG RFU)/2 and (Net inhibitor total glutathione RFU) – (Net inhibitor GSSG RFU)/ (Net inhibitor GSSG RFU)/2 respectively.

| Structure (SMILES) | % Ratio GSH/GSSG [%] |
| --- | --- |
| Cc1oc(-c2ccc3ccccc3c2)nc1CNC1CCCCCC1 [Compound 5] | 47.8314 |

Same assay, conditions: adult worms ex vivo, 1 hr, relative to 0hr

| Structure (SMILES) | Reduction (%) in GSH/GSSG ratio [%] |
| --- | --- |
| Cc1oc(-c2ccc3ccccc3c2)nc1CNC1CCCCCC1 [Compound 5] | 20.3307 |

Same assay, conditions: adult worms ex vivo, 3 hr

| Structure (SMILES) | % Ratio GSH/GSSG [%] |
| --- | --- |
| Cc1oc(-c2ccc3ccccc3c2)nc1CNC1CCCCCC1 [Compound 5] | 26.3574 |

Same assay, conditions: adult worms ex vivo, 3 hr, relative to 0hr

| Structure (SMILES) | Reduction (%) in GSH/GSSG ratio [%] |
| --- | --- |
| Cc1oc(-c2ccc3ccccc3c2)nc1CNC1CCCCCC1 [Compound 5] | 56.0984 |

Same assay, conditions: adult worms, 3 h exposure to compounds at 50 μM

| Structure (SMILES) | Decrease (%) in GSH/GSSG ratio [%] |
| --- | --- |
| Cc1oc(-c2ccc3ccccc3c2)nc1CNC1CCCCCC1 [Compound 5] | 56 |
